The source of these data is ChEMBL document CHEMBL5579875, “Discovery of VU6008677: A Structurally Distinct Tricyclic M4 Positive Allosteric Modulator with Improved CYP450 Profile” (ACS Med Chem Lett, 2024).

Data set [1] in a line: Plasma protein binding in human assessed as unbound fraction at 5 uM incubated for 6 hrs by LC-MS/MS analysis. In kind it is ADME, cell-free.
Data set [2] can be described thus: Plasma protein binding in rat assessed as unbound fraction at 5 uM incubated for 6 hrs by LC-MS/MS analysis. In kind it is ADME, cell-free.
The nature of data set [3]: Unbound fraction in rat brain homogenate at 1 uM incubated for 6 hrs by LC-MS/MS analysis. In kind it is ADME, tissue-based.

SMILES strings stand for the structures.

For the compound `Cc1nc2sc3c(NC4CC4)ncnc3c2c(C)c1Cl.Cl`, the Fu in data set [1] is 0.004; in data set [2] it was 0.01.
`Cc1c(Cl)cnc2sc3c(NC4CC(c5ccncc5)C4)ncnc3c12` (stereo not given): the Fu was 0.005 in data set [3], 0.01 in data set [1] and 0.01 in data set [2].
